Marks after values point to notes of the source that are not given here.
Key:
[1] = test system: IFNγ, IL-6, CCL2/MCP-1, TNFα in plasma; experiment: In vivo cytokine induction, plasma cytokine levels (Example 12); design: species or system BALB/C mice; conditions: for IFNγ plasma level, Mean: values at/below LLOQ set to 0.01
Protocol: Mice were subcutaneously implanted with 3×10^5 CT26 tumor cells in the left and right flanks. […] Hydrogels were administered as suspensions in PBST buffer. K2 EDTA-preserved blood samples were collected by retro-orbital bleed at various time points following drug administration and plasma was isolated following centrifugation at 2000×g for 5 minutes at 4° C. and frozen. Plasma samples were stored at −80° C. Plasma was thawed and undiluted samples were assessed for cytokine levels using the 36-Plex Mouse ProcartaPlex™ Cytokine Panel 1A (ThermoFisher Scientific) following manufacturer's recommendations. Cytokines were measured on the Bio-Plex 200 (BioRad) following kit instructions.

[2] = test system: Ly-6C^+ antigen presenting cells, MHCII^+ antigen presenting cells, CD8^+, Ly-6C^+ CD8^+ and CD4^+ T cells of tumor draining lymph nodes; experiment: Flow cytometric profiling of tumor draining lymph node immune cells (Example 15); assay type: in vivo, BALB/C mice; conditions: 7 days after randomization
Protocol: Hydrogels were administered as suspension in PTP buffer. Some cohorts were further treated with 20 μg human IL-2 (Peprotech, Rocky Hill, N.J.), intraperitoneally (I.P.), twice a day for 5 days. Mice were sacrificed 7 days after randomization (D0). Following sacrifice, tumor draining lymph nodes were isolated from both flanks and were dissociated mechanically to generate a single cell suspension at a cell concentration of 1×10^6 cells per sample. Cell suspensions were centrifuged at 300 g for 5 minutes. Supernatants were discarded and cells were resuspended in FACS buffer with 1 μg/ml Fc-Block and incubated at 4° C. for 10 minutes in the dark. Surface marker antibody mixtures (antibody concentration: 10 μg/mL) in FACS buffer were added to each sample and samples were incubated in the dark at 4° C. for 30 minutes. Cells were centrifuged at 300 g for 5 minutes and supernatants were discarded. Cells were washed and then resuspended with FACS buffer before cytometer collection.
After collection, FACS data was analyzed using FlowJo Version 10.6.1. Compensation was digitally adjusted using single antibody-stained beads. Samples with less than 90% viability, as determined by LiveDead cell staining, were excluded from the analysis. Cells were defined using the following gating strategy: • 1) Ly-6C^+ antigen presenting cells: FSC-H/FSC-A Singlets/LiveDead^−/CD45^+/CD3^−/CD335^−/Ly-6C^+ • 2) Ly-6C^+ MHCII^+ antigen presenting cells: FSC-H/FSC-A Singlets/LiveDead^−/CD45^+/CD3^−/CD335^−/Ly-6C^+/IA/IE (MHCII)^+ • 3) CD8^+ T cells: FSC-H/FSC-A Singlets/LiveDead^−/CD45^+/CD3^+/CD8 single positive • 4) Ly-6C^+ CD8^+ T cells: FSC-H/FSC-A Singlets/LiveDead^−/CD45^+/CD3^+/CD8 single positive/Ly-6C^+

[3] = 1 h post-treatment, single intratumoral dose
[4] = 3 h post-treatment, single intratumoral dose
[5] = 6 h post-treatment, single intratumoral dose
[6] = 10 h post-treatment, single intratumoral dose
[7] = 24 h post-treatment, single intratumoral dose

CCOCc1nc2c(N)nc3ccccc3c2n1CC(C)(C)O [Compound 4, Resiquimod]
CCL2/MCP-1 plasma level, Mean [1, 3]: 357.83 pg/mL | IL-6 plasma level, Mean [1, 3]: 3618.87†, ‡ pg/mL | TNFα plasma level, Mean [1, 3]: 830.84 pg/mL | IFNγ plasma level, Mean ([1]; 1 h post-treatment, single intratumoral dose (4: 20 μs; 13c: 50 μL)): 4.04 pg/mL | CCL2/MCP-1 plasma level, Mean [1, 4]: 4230.35†, ‡ pg/mL | IL-6 plasma level, Mean [1, 4]: 1739.75†, ‡ pg/mL | TNFα plasma level, Mean [1, 4]: 136.25 pg/mL | IFNγ plasma level, Mean [1, 4]: 15.49†, ‡ pg/mL | CCL2/MCP-1 plasma level, Mean [1, 5]: 1039.17†, ‡ pg/mL | IL-6 plasma level, Mean [1, 5]: 88.59 pg/mL | TNFα plasma level, Mean [1, 5]: 35.49 pg/mL | IFNγ plasma level, Mean [1, 5]: 40.72†, ‡ pg/mL | CCL2/MCP-1 plasma level, Mean [1, 6]: 847.07† pg/mL | IL-6 plasma level, Mean [1, 6]: 154.51 pg/mL | TNFα plasma level, Mean [1, 6]: 43.32 pg/mL | IFNγ plasma level, Mean [1, 6]: 28.19†, ‡ pg/mL | CCL2/MCP-1 plasma level, Mean [1, 7]: 92.58 pg/mL | IL-6 plasma level, Mean [1, 7]: 44.71 pg/mL | TNFα plasma level, Mean [1, 7]: 9.74 pg/mL | IFNγ plasma level, Mean [1, 7]: 2.38 pg/mL | Frequency of CD4^+ T cells of CD3^+ T cells, Mean ([2]; injected right flank tumor): 69.1% | Frequency of CD8^+ T cells of CD3^+ T cells, Mean ([2]; injected right flank tumor): 29.23% | Frequency of IA-IE (MHCII)^+ antigen presenting cells of Ly-6C^+ antigen presenting cells, Mean ([2]; injected right flank tumor): 69.63% | Frequency of Ly-6C^+ T cells of CD8^+ T cells, Mean ([2]; injected right flank tumor): 53.7% | Frequency of Ly-6C^+ antigen presenting cells of non-T cells, Mean ([2]; injected right flank tumor): 2.5% | Frequency of CD4^+ T cells of CD3^+ T cells, Mean ([2]; uninjected left flank tumor): 69.25% | Frequency of CD8^+ T cells of CD3^+ T cells, Mean ([2]; uninjected left flank tumor): 29% | Frequency of IA-IE (MHCII)^+ antigen presenting cells of Ly-6C^+ antigen presenting cells, Mean ([2]; uninjected left flank tumor): 35.05% | Frequency of Ly-6C^+ T cells of CD8^+ T cells, Mean ([2]; uninjected left flank tumor): 48% | Frequency of Ly-6C^+ antigen presenting cells of non-T cells, Mean ([2]; uninjected left flank tumor): 7.8%

Source: patent publication US20220054476A1, “SUSTAINED LOCAL DRUG LEVELS FOR INNATE IMMUNE AGONISTS” (Ascendis Pharma Oncology Division A/S, priority 2019, published 2022)
